Data taken from US20260250290A1 (BRISTOL-MYERS SQUIBB COMPANY, priority 2023, published 2026).
Counter-ions that a name gives are not always drawn.

The compounds below were run against T1, SGK1 (Homo sapiens, UniProt O00141) (assay: SGK1 inhibition Assay B (Echo mass spectrometry of phosphorylated peptide product)). Settings: 60 min at room temperature.
T1 sequence (O00141 1-431): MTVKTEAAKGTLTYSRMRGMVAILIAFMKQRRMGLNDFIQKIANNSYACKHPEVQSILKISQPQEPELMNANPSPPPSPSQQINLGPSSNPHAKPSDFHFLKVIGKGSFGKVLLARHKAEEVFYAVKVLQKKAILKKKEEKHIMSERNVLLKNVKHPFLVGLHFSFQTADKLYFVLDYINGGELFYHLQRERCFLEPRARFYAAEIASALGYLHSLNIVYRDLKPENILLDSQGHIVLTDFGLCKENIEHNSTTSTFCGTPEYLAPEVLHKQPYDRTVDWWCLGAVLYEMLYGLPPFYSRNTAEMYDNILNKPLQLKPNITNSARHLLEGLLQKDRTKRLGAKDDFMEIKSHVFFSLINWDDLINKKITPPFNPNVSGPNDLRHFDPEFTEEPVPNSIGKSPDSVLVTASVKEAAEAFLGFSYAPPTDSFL
Format: biochemical
With `CCOC1=C(C(=O)N[C@@H]2CCCN(c3cc(C4=CCN(C(C)=O)C4)n4ncnc(N)c34)C2)CN(c2ccccc2)C1=O` [Example 758, (R)-N-(1-(7-(1-acetyl-2,5-dihydro-1H-pyrrol-3-yl)-4-aminopyrrolo[2,1-f][1,2,4]triazin-5-yl)piperidin-3-yl)-4-ethoxy-5-oxo-1-phenyl-2,5-dihydro-1H-pyrrole-3-carboxamide, TFA salt] the IC50 was 143 nM.
In the case of `CCOC1=C(C(=O)N[C@@H]2CCCN(c3cc(C4=CCN(C(C)=O)C4)n4ncnc(N)c34)C2)CN(CC(F)(F)F)C1=O` [Example 759, (R)-N-(1-(7-(1-acetyl-2,5-dihydro-1H-pyrrol-3-yl)-4-aminopyrrolo[2,1-f][1,2,4]triazin-5-yl)piperidin-3-yl)-4-ethoxy-5-oxo-1-(2,2,2-trifluoroethyl)-2,5-dihydro-1H-pyrrole-3-carboxamide], the IC50 is reported as 887 nM.
`CN1CCN(c2cccc(C(=O)N[C@@H]3CCCN(c4cc(-c5ccc6[nH]ncc6c5)n5ncnc(N)c45)C3)n2)CC1` [Example 806, (R)-N-(1-(4-amino-7-(1H-indazol-5-yl)pyrrolo[2,1-f][1,2,4]triazin-5-yl)piperidin-3-yl)-6-(4-methylpiperazin-1-yl)picolinamide] showed an IC50 of 134 nM.
With `CN1CCN(c2cccc(C(=O)N[C@@H]3CCCN(c4cc(-c5cnn(C(F)F)c5)n5ncnc(N)c45)C3)n2)CC1` [Example 807, (R)-N-(1-(4-amino-7-(1-(difluoromethyl)-1H-pyrazol-4-yl)pyrrolo[2,1-f][1,2,4]triazin-5-yl)piperidin-3-yl)-6-(4-methylpiperazin-1-yl)picolinamide, TFA salt] the IC50 was 41 nM.
Compound `CN1CCN(c2cccc(C(=O)N[C@@H]3CCCN(c4cc(-c5ccc(-n6cccn6)cc5)n5ncnc(N)c45)C3)n2)CC1` [Example 808, (R)-N-(1-(7-(4-(1H-pyrazol-1-yl)phenyl)-4-aminopyrrolo[2,1-f][1,2,4]triazin-5-yl)piperidin-3-yl)-6-(4-methylpiperazin-1-yl)picolinamide] has an IC50 of 34 nM.
`CC(=O)c1ccc(-c2cc(N3CCC[C@@H](NC(=O)c4cccc(N5CCN(C)CC5)n4)C3)c3c(N)ncnn23)cn1` [Example 809, (R)-N-(1-(7-(6-acetylpyridin-3-yl)-4-aminopyrrolo[2,1-f][1,2,4]triazin-5-yl)piperidin-3-yl)-6-(4-methylpiperazin-1-yl)picolinamide] showed an IC50 of 80 nM.
Compound `CN1CCN(c2cccc(C(=O)N[C@@H]3CCCN(c4cc(-c5ccc(F)c(F)c5)n5ncnc(N)c45)C3)n2)CC1` [Example 811, (R)-N-(1-(4-amino-7-(3,4-difluorophenyl)pyrrolo[2,1-f][1,2,4]triazin-5-yl)piperidin-3-yl)-6-(4-methylpiperazin-1-yl)picolinamide] has an IC50 of 45 nM.
In the case of `CC(C)N1CC2(CN(c3cccc(C(=O)N[C@@H]4CCCN(c5cc(-c6ccc(-n7cnnn7)c(F)c6)n6ncnc(N)c56)C4)n3)C2)C1` [Example 816, (R)-N-(1-(4-amino-7-(3-fluoro-4-(1H-tetrazol-1-yl)phenyl)pyrrolo[2,1-f][1,2,4]triazin-5-yl)piperidin-3-yl)-6-(6-isopropyl-2,6-diazaspiro[3.3]heptan-2-yl)picolinamide], the IC50 is reported as 6 nM.
With `CC(C)N1CC2(CN(c3cccc(C(=O)N[C@@H]4CCCN(c5cc(-c6ccc(C#N)nc6)n6ncnc(N)c56)C4)n3)C2)C1` [Example 817, (R)-N-(1-(4-amino-7-(6-cyanopyridin-3-yl)pyrrolo[2,1-f][1,2,4]triazin-5-yl)piperidin-3-yl)-6-(6-isopropyl-2,6-diazaspiro[3.3]heptan-2-yl)picolinamide] the IC50 was 14 nM.
For `CC(C)N1CC2(CN(c3cccc(C(=O)N[C@@H]4CCCN(c5cc(-c6ccc(C#N)c(F)c6)n6ncnc(N)c56)C4)n3)C2)C1` [Example 818, (R)-N-(1-(4-amino-7-(4-cyano-3-fluorophenyl)pyrrolo[2,1-f][1,2,4]triazin-5-yl)piperidin-3-yl)-6-(6-isopropyl-2,6-diazaspiro[3.3]heptan-2-yl)picolinamide], the IC50 was 3 nM.
Compound `COC(=O)N1CC=C(c2cc(N3CCC[C@@H](NC(=O)c4cccc(N5CC6(C5)CN(C(C)C)C6)n4)C3)c3c(N)ncnn23)C1` [Example 819, methyl (R)-3-(4-amino-5-(3-(6-(6-isopropyl-2,6-diazaspiro[3.3]heptan-2-yl)picolinamido)piperidin-1-yl)pyrrolo[2,1-f][1,2,4]triazin-7-yl)-2,5-dihydro-1H-pyrrole-1-carboxylate] has an IC50 of 21 nM.
`CNC(=O)c1ccc(-c2cc(N3CCC[C@@H](NC(=O)c4cccc(N5CC6(C5)CN(C(C)C)C6)n4)C3)c3c(N)ncnn23)cn1` [Example 820] was tested, and the IC50 was 21 nM.
`CC(C)N1CC2(CN(c3cccc(C(=O)N[C@@H]4CCCN(c5cc(-c6ccc7cnn(C)c7c6)n6ncnc(N)c56)C4)n3)C2)C1` [Example 821, (R)-N-(1-(4-amino-7-(1-methyl-1H-indazol-6-yl)pyrrolo[2,1-f][1,2,4]triazin-5-yl)piperidin-3-yl)-6-(6-isopropyl-2,6-diazaspiro[3.3]heptan-2-yl)picolinamide] showed an IC50 of 69 nM.
`Cc1cc(-c2cc(N3CCC[C@@H](NC(=O)c4cccc(N5CC6(C5)CN(C(C)C)C6)n4)C3)c3c(N)ncnn23)ccc1-n1cnnn1` [Example 822] was tested, and the IC50 was 4 nM.
With `CC(C)N1CC2(CN(c3cccc(C(=O)N[C@@H]4CCCN(c5cc(-c6ccc(-n7cnnn7)c(F)c6F)n6ncnc(N)c56)C4)n3)C2)C1` [Example 823, (R)-N-(1-(4-amino-7-(2,3-difluoro-4-(1H-tetrazol-1-yl)phenyl)pyrrolo[2,1-f][1,2,4]triazin-5-yl)piperidin-3-yl)-6-(6-isopropyl-2,6-diazaspiro[3.3]heptan-2-yl)picolinamide] the IC50 was 18 nM.
Work on `CC(C)N1CC2(CN(c3cccc(C(=O)N[C@@H]4CCCN(c5cc(-c6ccc(-n7cnnn7)c(CO)c6)n6ncnc(N)c56)C4)n3)C2)C1` [Example 824, (R)-N-(1-(4-amino-7-(3-(hydroxymethyl)-4-(1H-tetrazol-1-yl)phenyl)pyrrolo[2,1-f][1,2,4]triazin-5-yl)piperidin-3-yl)-6-(6-isopropyl-2,6-diazaspiro[3.3]beptan-2-yl)picolinamide] yielded an IC50 of 10 nM.
In the case of `CC(C)N1CC2(CN(c3cccc(C(=O)N[C@@H]4CCCN(c5cc(-c6cc(F)c(-n7cnnn7)cc6F)n6ncnc(N)c56)C4)n3)C2)C1` [Example 825, (R)-N-(1-(4-amino-7-(2,5-difluoro-4-(1H-tetrazol-1-yl)phenyl)pyrrolo[2,1-f][1,2,4]triazin-5-yl)piperidin-3-yl)-6-(6-isopropyl-2,6-diazaspiro[3.3]heptan-2-yl)picolinamide], the IC50 is reported as 7 nM.
Compound `CC(C)N1CC2(CN(c3cccc(C(=O)N[C@@H]4CCCN(c5cc(-c6cc(F)c(-n7cnnn7)c(F)c6)n6ncnc(N)c56)C4)n3)C2)C1` [Example 826, (R)-N-(1-(4-amino-7-(3,5-difluoro-4-(1H-tetrazol-1-yl)phenyl)pyrrolo[2,1-f][1,2,4]triazin-5-yl)piperidin-3-yl)-6-(6-isopropyl-2,6-diazaspiro[3.3]heptan-2-yl)picolinamide] has an IC50 of 3 nM.
`COc1cc(-c2cc(N3CCC[C@@H](NC(=O)c4cccc(N5CC6(C5)CN(C(C)C)C6)n4)C3)c3c(N)ncnn23)ccc1-n1cnnn1` [Example 827, (R)-N-(1-(4-amino-7-(3-methoxy-4-(1H-tetrazol-1-yl)phenyl)pyrrolo[2,1-f][1,2,4]triazin-5-y1)piperidin-3-yl)-6-(6-isopropyl-2,6-diazaspiro[3.3]heptan-2-yl)picolinamide] gave an IC50 of 7 nM.
For `CC(C)N1CC2(CN(c3cccc(C(=O)N[C@@H]4CCCN(c5cc(-c6cnc(-n7cnnn7)nc6)n6ncnc(N)c56)C4)n3)C2)C1` [Example 828, (R)-N-(1-(7-(2-(1H-tetrazol-1-yl)pyrimidin-5-yl)-4-aminopyrrolo[2,1-f][1,2,4]triazin-5-yl)piperidin-3-yl)-6-(6-isopropyl-2,6-diazaspiro[3.3]heptan-2-yl)picolinamide], the IC50 was 25 nM.
Compound `Cc1nnnn1-c1ccc(-c2cc(N3CCC[C@@H](NC(=O)c4cccc(N5CC6(C5)CN(C(C)C)C6)n4)C3)c3c(N)ncnn23)cc1` [Example 829, (R)-N-(1-(4-amino-7-(4-(5-methyl-1H-tetrazol-1-yl)phenyl)pyrrolo[2,1-f][1,2,4]triazin-5-yl)piperidin-3-yl)-6-(6-isopropyl-2,6-diazaspiro[3.3]heptan-2-yl)picolinamide] has an IC50 of 2 nM.
Compound `CC(C)N1CC2(CN(c3cccc(C(=O)N[C@@H]4CCCN(c5cc(-c6cnc(-n7cnnn7)c(F)c6)n6ncnc(N)c56)C4)n3)C2)C1` [Example 830, (R)-N-(1-(4-amino-7-(5-fluoro-6-(1H-tetrazol-1-yl)pyridin-3-yl)pyrrolo[2,1-f][1,2,4]triazin-5-yl)piperidin-3-yl)-6-(6-isopropyl-2,6-diazaspiro[3.3]heptan-2-yl)picolinamide] has an IC50 of 4 nM.
`CC(=O)c1ccc(-c2cc(N3CCC[C@@H](NC(=O)c4cccc(N5CC6(C5)CN(C(C)C)C6)n4)C3)c3c(N)ncnn23)cn1` [Example 831, (R)-N-(1-(7-(6-acetylpyridin-3-yl)-4-aminopyrrolo[2,1-f][1,2,4]triazin-5-yl)piperidin-3-yl)-6-(6-isopropyl-2,6-diazaspiro[3.3]heptan-2-yl)picolinamide] was tested, and the IC50 was 22 nM.
For `CC(C)N1CC2(CN(c3cccc(C(=O)N[C@@H]4CCCN(c5cc(-c6ccc(S(C)(=O)=O)cc6)n6ncnc(N)c56)C4)n3)C2)C1` [Example 832, (R)-N-(1-(4-amino-7-(4-(methylsulfonyl)phenyl)pyrrolo[2,1-f][1,2,4]triazin-5-yl)piperidin-3-yl)-6-(6-isopropyl-2,6-diazaspiro[3.3]heptan-2-yl)picolinamide], the IC50 was 12 nM.
